From ChEMBL document CHEMBL1201862, “PubChem BioAssay data set” (2004)
Blank lines part the entries; values can stand above or below the compound they belong to. Activity calls are given as the source filed them.

What was measured:
[1] = HepG2 cell cytotoxicity, dose response, cytotoxicity control for Shn3 inhibitor project, CellTiter-Glo, cherry-picked (AID 624134); format: functional, cell-based
[2] = biological target: Luciferin 4-monooxygenase (Photinus pyralis, UniProt P08659); test: firefly luciferase enzyme inhibitors, dose response, biochemical, luminescence (AID 1891)
HEK293 [3] = test: cells; format: functional, cell-based; conditions: Homo sapiens
HEK293 [4] = test: cells; format: functional, cell-based; conditions: Homo sapiens; remark: listed apart in the source
[5] = control 3'UTR Renilla luciferase suppression, dose response, counter-screen for Shn3 inhibitor project, cell-based, Clone20-Shn3RL, cherry-picked (AID 624133); format: functional
[6] = biological target: Nucleotide-binding oligomerization domain-containing protein 2 (Homo sapiens, UniProt Q9HC29); test: NOD2 signaling inhibitors, cell-based, luminescence, uHTS, HEK293 (AID 1566); format: functional
[7] = Luminescence Cell-Based Dose Confirmation HTS to Identify Inhibitors of Platelet Dense Granule Release. [Related pubchem assays: 1663 (Primary HTS), 1678 (Summary of Project)]; format: functional
HEK293 [8] = test: NOD2 signaling inhibitors in MDP-stimulated cells, cell-based, uHTS, luminescence (AID 2001); format: functional; conditions: Homo sapiens
HEK293 [9] = test: cells; format: functional, cell-based; conditions: Homo sapiens; remark: listed apart in the source
[10] = Shn3 3'UTR reporter inhibitors, dose response, cell-based, Clone20 osteoblasts, firefly luciferase, cherry-picked (AID 624132); format: functional;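 further: firefly luciferase luminescence from reporter carrying the Shn3 3'UTR in osteoblasts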
HEK293 [11] = test: NOD1 signaling inhibitors, primary screen, cell-based, luminescence, uHTS (AID 1578); format: functional; conditions: Homo sapiens
Cannabinoid receptor 2 [12] = biological target: T1, Cannabinoid receptor 2 (Homo sapiens, UniProt P34972); test: SAR analysis of agonists of the Cannabinoid Receptor 2 using an Image-Based Assay - Set 2. [Related pubchem assays (depositor defined):AID1961, AID1965]; format: functional
Cannabinoid receptor 2 [13] = biological target: T1, Cannabinoid receptor 2; test: SAR analysis of antagonists of the Cannabinoid Receptor 2 using an Image-Based Assay - Set 2. [Related pubchem assays (depositor defined):AID1961, AID1965]; format: functional
Cannabinoid receptor 1 = Cannabinoid receptor 1 (Homo sapiens, UniProt P21554); test: SAR analysis of antagonists of the Cannabinoid Receptor 1 using an Image-Based Assay. [Related pubchem assays (depositor defined):AID1961, AID1965]; format: functional
[14] = biological target: T2, G-protein coupled receptor 55 (Homo sapiens, UniProt Q9Y2T6); test: SAR analysis of selective Agonists of GPR55 using an Image-Based Assay. [Related pubchem assays (depositor defined):AID1961, AID1965]; format: functional
Perilipin-1/ABHD5 = Perilipin-1/ABHD5 (Homo sapiens, UniProt O60240+Q8WTS1); test: Luminescence-based biochemical high throughput dose response assay for inhibitors of the interaction of the lipase co-activator protein, abhydrolase domain containing 5 (ABHD5) with perilipin-1 (PLIN1) (2K validation set). [Related pubchem assays (depositor defined):AID493027, AID493057]
[15] = biological target: 1-acylglycerol-3-phosphate O-acyltransferase ABHD5/Perilipin-5 (Homo sapiens, UniProt Q00G26+Q8WTS1); test: Luminescence-based biochemical high throughput dose response assay for inhibitors of the interaction of the lipase co-activator protein, abhydrolase domain containing 5 (ABHD5) with perilipin-5 (MLDP; PLIN5) (2K validation set). [Related pubchem assays (depositor defined):AID493035, AID493241]
[16] = biological target: T3, Tyrosine-protein phosphatase non-receptor type 7 (Homo sapiens, UniProt P35236); test: redox-dependent HePTP inhibition, mechanism study, biochemical, fluorescence (AID 2068); format: functional
T3 sequence (P35236 whole entry): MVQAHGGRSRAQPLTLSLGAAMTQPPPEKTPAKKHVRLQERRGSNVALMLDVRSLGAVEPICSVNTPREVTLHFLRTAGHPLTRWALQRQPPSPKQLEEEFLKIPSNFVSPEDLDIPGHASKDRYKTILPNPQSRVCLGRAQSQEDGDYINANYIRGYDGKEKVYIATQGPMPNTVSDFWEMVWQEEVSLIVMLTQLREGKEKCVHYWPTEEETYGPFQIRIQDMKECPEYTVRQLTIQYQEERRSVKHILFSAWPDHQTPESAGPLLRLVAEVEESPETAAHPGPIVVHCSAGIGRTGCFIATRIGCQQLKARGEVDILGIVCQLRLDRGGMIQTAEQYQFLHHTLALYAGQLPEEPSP

[17] = biological target: T4, Ubiquitin-conjugating enzyme E2 N (Homo sapiens, UniProt P61088); format: functional
T4 sequence (P61088 whole entry): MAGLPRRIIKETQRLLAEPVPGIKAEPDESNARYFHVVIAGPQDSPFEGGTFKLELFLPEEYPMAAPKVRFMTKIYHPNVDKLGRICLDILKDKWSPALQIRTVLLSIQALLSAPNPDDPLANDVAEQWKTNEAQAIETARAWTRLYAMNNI

Bcl-2-related protein A1 = biological target: T5, Bcl-2-related protein A1 (Mus musculus, UniProt Q07440); format: functional;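 further: confirmatory dose–response counterscreen on Bfl-1, used to check hits from a UBC13 polyubiquitin inhibitor campaign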
T5 sequence (Q07440 whole entry): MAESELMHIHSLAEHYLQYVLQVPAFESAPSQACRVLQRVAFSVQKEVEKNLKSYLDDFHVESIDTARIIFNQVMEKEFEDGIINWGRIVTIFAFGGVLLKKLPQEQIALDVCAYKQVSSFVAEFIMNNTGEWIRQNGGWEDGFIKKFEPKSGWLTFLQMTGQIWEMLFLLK

[18] = biological target: T4, Ubiquitin-conjugating enzyme E2 N; format: functional; remark: listed apart in the source
[19] = biological target: T6, DNA repair protein RAD52 homolog (Homo sapiens, UniProt P43351); format: functional, biochemical
T6 sequence (P43351 whole entry): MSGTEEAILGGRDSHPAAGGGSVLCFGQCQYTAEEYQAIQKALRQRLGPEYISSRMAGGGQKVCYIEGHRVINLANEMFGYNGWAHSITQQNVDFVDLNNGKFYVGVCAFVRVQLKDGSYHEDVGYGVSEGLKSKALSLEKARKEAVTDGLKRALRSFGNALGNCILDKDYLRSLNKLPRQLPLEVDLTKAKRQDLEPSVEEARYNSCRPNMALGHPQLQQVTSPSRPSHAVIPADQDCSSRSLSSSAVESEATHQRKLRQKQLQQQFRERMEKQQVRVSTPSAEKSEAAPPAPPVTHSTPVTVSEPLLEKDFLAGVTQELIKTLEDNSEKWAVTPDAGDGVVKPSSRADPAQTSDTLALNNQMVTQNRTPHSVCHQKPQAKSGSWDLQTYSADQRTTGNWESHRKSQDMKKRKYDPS

[20] = biological target: T2, G-protein coupled receptor 55; test: GPR55 agonists via beta-arrestin recruitment, primary screen, imaging, U2OS cells, beta-arrestin-GFP redistribution (AID 1961); format: functional
[21] = biological target: Eukaryotic translation initiation factor 4E (Mus musculus, UniProt P63073); test: eIF4E–eIF4G protein interaction inhibitors, dose response, biochemical, TR-FRET (AID 855); format: functional;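 further: potency for disrupting eIF4E binding to eIF4GI seen as loss of FRET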
Chain of Eukaryotic translation initiation factor 4E (P63073 whole entry): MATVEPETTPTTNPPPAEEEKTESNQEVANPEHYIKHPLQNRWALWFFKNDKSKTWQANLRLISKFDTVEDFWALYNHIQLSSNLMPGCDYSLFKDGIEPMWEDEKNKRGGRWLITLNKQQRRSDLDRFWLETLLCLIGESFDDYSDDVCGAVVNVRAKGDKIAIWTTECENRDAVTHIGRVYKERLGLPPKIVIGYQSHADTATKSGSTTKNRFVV

T1 sequence (P34972 whole entry): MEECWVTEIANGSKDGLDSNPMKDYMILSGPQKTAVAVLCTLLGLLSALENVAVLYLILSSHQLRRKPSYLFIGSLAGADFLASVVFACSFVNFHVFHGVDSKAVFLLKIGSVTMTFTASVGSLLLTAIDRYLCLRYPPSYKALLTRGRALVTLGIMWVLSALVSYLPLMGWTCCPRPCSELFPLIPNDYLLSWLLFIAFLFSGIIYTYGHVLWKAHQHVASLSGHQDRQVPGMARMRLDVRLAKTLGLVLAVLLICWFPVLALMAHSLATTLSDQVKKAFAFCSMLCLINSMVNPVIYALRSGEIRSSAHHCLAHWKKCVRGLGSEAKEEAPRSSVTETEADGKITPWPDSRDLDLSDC
T2 sequence (Q9Y2T6 whole entry, the tested form may be a part): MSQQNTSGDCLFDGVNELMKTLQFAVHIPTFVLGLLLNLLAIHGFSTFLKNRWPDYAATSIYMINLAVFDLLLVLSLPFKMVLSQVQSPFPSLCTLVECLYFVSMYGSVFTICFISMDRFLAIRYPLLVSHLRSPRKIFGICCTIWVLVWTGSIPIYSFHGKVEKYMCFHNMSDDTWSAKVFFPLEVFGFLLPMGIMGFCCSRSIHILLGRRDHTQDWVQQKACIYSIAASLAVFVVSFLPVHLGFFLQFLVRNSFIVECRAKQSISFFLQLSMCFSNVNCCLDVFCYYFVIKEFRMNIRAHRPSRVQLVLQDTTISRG
Chain of 1-acylglycerol-3-phosphate O-acyltransferase ABHD5/Perilipin-5 (Q00G26 whole entry, the tested form may be a part): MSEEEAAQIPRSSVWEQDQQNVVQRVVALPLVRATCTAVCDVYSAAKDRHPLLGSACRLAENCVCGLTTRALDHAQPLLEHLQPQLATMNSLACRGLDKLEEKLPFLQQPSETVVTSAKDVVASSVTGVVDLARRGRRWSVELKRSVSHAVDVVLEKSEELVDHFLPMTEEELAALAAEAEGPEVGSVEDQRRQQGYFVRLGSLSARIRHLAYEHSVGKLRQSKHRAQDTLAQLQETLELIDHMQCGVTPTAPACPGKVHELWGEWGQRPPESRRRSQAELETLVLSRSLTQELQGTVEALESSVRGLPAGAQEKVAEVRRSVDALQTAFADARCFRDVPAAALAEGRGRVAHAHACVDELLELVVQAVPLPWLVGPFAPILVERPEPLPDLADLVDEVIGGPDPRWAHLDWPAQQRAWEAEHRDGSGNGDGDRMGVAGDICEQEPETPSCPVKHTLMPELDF
Chain of 1-acylglycerol-3-phosphate O-acyltransferase ABHD5/Perilipin-5 (Q8WTS1 whole entry, the tested form may be a part): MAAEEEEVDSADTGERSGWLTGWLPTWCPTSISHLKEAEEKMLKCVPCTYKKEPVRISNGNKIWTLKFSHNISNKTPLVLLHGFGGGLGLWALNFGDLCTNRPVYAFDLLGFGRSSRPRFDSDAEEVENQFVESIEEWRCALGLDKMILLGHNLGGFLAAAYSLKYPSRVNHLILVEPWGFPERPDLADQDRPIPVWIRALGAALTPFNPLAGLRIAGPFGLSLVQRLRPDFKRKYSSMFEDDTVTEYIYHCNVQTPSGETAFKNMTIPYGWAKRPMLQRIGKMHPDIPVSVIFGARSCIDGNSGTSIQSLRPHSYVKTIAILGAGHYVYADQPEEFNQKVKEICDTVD
Chain of Cannabinoid receptor 1 (P21554 whole entry): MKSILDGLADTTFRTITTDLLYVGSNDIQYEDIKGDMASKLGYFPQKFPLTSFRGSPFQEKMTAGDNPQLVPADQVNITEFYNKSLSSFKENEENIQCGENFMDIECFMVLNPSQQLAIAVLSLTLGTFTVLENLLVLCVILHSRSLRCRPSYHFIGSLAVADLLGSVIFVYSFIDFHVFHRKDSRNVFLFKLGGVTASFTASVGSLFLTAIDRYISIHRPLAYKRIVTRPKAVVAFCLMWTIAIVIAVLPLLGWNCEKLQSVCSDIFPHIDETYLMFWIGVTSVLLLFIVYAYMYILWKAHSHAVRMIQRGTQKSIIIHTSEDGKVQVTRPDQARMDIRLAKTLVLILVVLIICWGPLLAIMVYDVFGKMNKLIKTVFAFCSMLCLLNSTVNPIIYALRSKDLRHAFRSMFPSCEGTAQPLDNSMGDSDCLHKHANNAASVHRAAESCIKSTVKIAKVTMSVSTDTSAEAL
Chain of Nucleotide-binding oligomerization domain-containing protein 2 (Q9HC29 whole entry, the tested form may be a part): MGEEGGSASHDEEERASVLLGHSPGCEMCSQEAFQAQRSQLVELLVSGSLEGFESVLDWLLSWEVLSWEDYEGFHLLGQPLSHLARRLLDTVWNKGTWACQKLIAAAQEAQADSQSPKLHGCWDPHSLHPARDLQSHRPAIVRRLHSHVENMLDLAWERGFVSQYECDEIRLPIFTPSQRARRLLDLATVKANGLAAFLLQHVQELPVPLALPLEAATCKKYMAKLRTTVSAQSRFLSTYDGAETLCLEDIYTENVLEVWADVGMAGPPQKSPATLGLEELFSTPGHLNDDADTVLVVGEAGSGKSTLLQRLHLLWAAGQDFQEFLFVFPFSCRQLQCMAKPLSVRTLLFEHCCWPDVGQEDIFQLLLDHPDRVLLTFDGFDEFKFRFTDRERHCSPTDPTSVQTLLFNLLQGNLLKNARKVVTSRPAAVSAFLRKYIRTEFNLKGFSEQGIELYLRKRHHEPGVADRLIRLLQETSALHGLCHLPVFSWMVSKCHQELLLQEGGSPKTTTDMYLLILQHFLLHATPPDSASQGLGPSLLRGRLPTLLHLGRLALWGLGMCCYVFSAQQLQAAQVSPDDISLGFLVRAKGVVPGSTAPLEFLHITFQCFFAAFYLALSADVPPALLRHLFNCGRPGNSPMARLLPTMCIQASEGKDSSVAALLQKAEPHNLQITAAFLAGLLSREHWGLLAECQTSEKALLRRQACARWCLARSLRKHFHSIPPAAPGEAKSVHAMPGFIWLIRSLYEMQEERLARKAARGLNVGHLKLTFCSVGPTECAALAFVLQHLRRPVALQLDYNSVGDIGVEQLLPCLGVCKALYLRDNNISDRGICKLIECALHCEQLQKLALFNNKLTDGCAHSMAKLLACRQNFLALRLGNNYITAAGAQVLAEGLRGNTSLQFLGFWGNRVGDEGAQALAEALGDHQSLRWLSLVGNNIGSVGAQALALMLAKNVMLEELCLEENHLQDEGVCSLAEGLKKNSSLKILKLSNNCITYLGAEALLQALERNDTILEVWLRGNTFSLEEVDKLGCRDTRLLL
Chain of Perilipin-1/ABHD5 (Q8WTS1 whole entry, the tested form may be a part): as the sequence (Q8WTS1 whole entry, the tested form may be a part) above
Chain of Perilipin-1/ABHD5 (O60240 whole entry, the tested form may be a part): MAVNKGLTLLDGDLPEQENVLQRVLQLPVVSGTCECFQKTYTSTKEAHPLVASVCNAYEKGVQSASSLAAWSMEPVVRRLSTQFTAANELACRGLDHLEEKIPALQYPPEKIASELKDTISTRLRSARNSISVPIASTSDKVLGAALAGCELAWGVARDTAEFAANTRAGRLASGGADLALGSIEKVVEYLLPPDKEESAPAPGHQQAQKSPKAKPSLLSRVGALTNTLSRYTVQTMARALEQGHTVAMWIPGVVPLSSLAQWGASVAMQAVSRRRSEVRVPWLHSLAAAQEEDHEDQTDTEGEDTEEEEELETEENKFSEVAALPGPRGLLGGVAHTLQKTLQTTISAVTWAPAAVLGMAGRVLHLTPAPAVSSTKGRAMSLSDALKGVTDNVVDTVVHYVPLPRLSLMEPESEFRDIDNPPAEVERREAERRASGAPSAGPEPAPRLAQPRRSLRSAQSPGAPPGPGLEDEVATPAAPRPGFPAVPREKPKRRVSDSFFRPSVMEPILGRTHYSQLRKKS
Chain of Luciferin 4-monooxygenase (P08659 whole entry): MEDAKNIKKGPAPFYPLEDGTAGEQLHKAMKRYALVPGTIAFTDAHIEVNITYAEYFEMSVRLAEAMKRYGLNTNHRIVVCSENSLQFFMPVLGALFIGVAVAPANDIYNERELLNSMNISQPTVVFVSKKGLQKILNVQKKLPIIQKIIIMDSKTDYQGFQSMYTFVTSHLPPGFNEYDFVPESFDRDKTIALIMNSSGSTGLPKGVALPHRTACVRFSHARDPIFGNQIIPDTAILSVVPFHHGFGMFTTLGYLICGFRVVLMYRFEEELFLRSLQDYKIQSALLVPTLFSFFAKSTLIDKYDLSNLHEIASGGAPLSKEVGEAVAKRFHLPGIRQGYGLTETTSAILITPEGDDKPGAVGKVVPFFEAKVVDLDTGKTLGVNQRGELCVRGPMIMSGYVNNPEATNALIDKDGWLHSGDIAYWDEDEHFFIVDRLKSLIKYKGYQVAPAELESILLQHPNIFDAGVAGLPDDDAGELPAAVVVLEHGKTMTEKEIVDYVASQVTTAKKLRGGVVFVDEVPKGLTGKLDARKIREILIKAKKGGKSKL

- EC50 (Cannabinoid receptor 2 [12]): > 32 µM (inactive)
- IC50 (Cannabinoid receptor 2 [13]): > 32 µM (inactive)
- IC50 (Cannabinoid receptor 1): > 32 µM (inactive)
- EC50 [14]: 0.681 µM (active)
SMILES: C/C(C=NNC(=O)c1nnn(-c2nonc2N)c1CN1CCC(C)CC1)=C/c1ccccc1

- IC50 [17]: 12.3 µM (active)
- IC50 (Bcl-2-related protein A1): > 20 µM (inactive)
- AC50 [19]: 3.52 µM (active)
- IC50 [18]: 10.9 µM (active)
SMILES: N[C@@H](CO)c1cn([C@@H](Cc2cc3ccccc3[nH]2)C(=O)N2CCNCC2)nn1

- EC50 (Cannabinoid receptor 2 [12]): < 0.062 µM (active)
- EC50 [20]: 1 µM (active)
- IC50 (Cannabinoid receptor 2 [13]): > 32 µM (inactive)
- IC50 (Cannabinoid receptor 1): > 32 µM (inactive)
- EC50 [14]: 1.17 µM (active)
SMILES: O=C(CSc1nc2ccccc2s1)N1c2ccccc2Sc2ccc(C(F)(F)F)cc21

- IC50 [21]: 50 µM (inactive)
- IC50 (Perilipin-1/ABHD5): 21.4 µM (inactive)
- IC50 [15]: > 26.5 µM (inactive)
SMILES: COc1cc(/C=C(\C#N)C(=O)N2CCc3ccccc32)ccc1O

The remaining lines, values behind:

SMILES: CCC1CCCCN1S(=O)(=O)c1ccc(NC(=O)c2ccncc2)cc1 (centres undefined)
- AC50 [1]: 4.88 µM (active)
- EC50 [2]: > 112 µM (not active)
- IC50 (HEK293 [3]): 19.3 µM (active)
- IC50 (HEK293 [4]): > 20 µM (inactive)
- AC50 [5]: 16.5 µM (active)
- EC50 [6]: > 20 µM (inactive)
- EC50 [7]: > 112 µM (not active)
- IC50 (HEK293 [8]): 11.7 µM (inactive)
- IC50 (HEK293 [9]): 8.23 µM (active)
- AC50 [10]: 3.43 µM (active)
- EC50 (HEK293 [11]): 5.51 µM (active)

SMILES: COc1ccc(CCNc2oc(COc3ccccc3Cl)nc2C#N)cc1OC
- IC50 (HEK293 [3]): 11.1 µM (active)
- IC50 (HEK293 [4]): > 20 µM (inactive)
- EC50 [6]: 16 µM (active)
- IC50 (HEK293 [8]): 8.33 µM (active)
- IC50 (HEK293 [9]): 8.53 µM (active)
- EC50 (HEK293 [11]): 14 µM (active)

SMILES: O=C(/C=C/c1ccccc1)c1ccccc1 [CHALCONE]
- IC50 (Perilipin-1/ABHD5): 4.19 µM (active)
- IC50 [15]: 4.25 µM (active)

SMILES: O=C(NCc1ccccc1)Nc1ccc2nc(-c3ccco3)c(-c3ccco3)nc2c1
- IC50 [16]: 1.54 µM (active)

SMILES: NC(=S)N=Nc1c(O)n(C2OC(=O)c3ccccc32)c2ccccc12 (centres undefined)
- IC50 [17]: 3.62 µM (active)
- IC50 (Bcl-2-related protein A1): > 20 µM (inactive)
- IC50 [18]: 2.38 µM (active)
